Measurements as given in patent US11090304B2 (Amgen Inc., priority 2018, dated 2021).
Like-named read-outs stand apart in the source and are kept apart here.

Experiments:
[1] = system: Phosphorylation of ERK1/2 in MIA PaCa-2 cells; assay: Phospho-ERK1/2 MSD assay in MIA PaCa-2 cells; format: cell-based; conditions: read-out: p-ERK IC50 (2 h; MIA PaCa-2), 2 h compound treatment
Method in brief: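 MIA PaCa-2 or A549 cells were treated with a compound dose-response titration for 2 or 4 h at 37 °C, then stimulated with 10 ng/mL EGF for 10 min. Phospho-ERK1/2 in RIPA lysates was measured by MSD whole-cell lysate immunoassay, and IC50 came from a 4-parameter logistic fit.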

[2] = target: GDP-bound KRAS protein (aa 1-169), containing both G12C and C118A amino acid substitutions (Homo sapiens, UniProt P01116, C118A/G12C); assay: Coupled nucleotide exchange assay (SOS-mediated, AlphaScreen); format: biochemical; conditions: 5 min compound pre-incubation
Sequence of GDP-bound KRAS protein (aa 1-169), containing both G12C and C118A amino acid substitutions (P01116 1-169 isoform P01116-2 G12C/C118A): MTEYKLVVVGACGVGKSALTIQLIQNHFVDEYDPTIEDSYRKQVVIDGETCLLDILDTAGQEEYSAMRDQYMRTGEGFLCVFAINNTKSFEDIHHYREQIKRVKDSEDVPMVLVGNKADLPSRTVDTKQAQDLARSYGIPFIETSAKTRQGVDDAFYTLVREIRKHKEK

Compound	IC50 ([1]; Homo sapiens, MIA PaCa-2, 2 h) [nM]	Coupled exchange IC50 (5 min) [2]	IC50 [1] [nM]	IC50 ([2]; read-out: Coupled exchange IC50 (5 min)) [nM]
C=CC(=O)N1CCN(c2nc(=O)n(-c3c(C)cccc3CC)c3nc(-c4ccccc4F)c(Cl)cc23)[C@@H](C)C1 (single isomer, unassigned) [Example 55-9-2]		0.158 | nda μM	298	
C=CC(=O)N1CCN(c2nc(=O)n(-c3ccccc3C(C)(C)C)c3nc(-c4ccccc4F)c(F)cc23)[C@@H](C)C1 (single isomer, unassigned) [Example 58-17-2]	672	0.849 | nda μM		
C=CC(=O)N1CCN(c2nc(=O)n(-c3c(Cl)ncnc3C(C)C)c3nc(-c4ccccc4F)c(Cl)cc23)[C@@H](C)C1 [Example 133, 6-Chloro-1-(4-chloro-6-(2-propanyl)-5-pyrimidinyl)-7-(2-fluorophenyl)-4-((2S)-2-methyl-4-(2-propenoyl)-1-piperazinyl)pyrido[2,3-d]pyrimidin-2(1H)-one]	198	0.119 | nda μM		
C=CC(=O)N1CCN(c2nc(=O)n(-c3c(C)cccc3CC)c3nc(-c4ccccc4F)c(Cl)cc23)[C@@H](C)C1 (single isomer, unassigned) [Example 55-9-1]		0.804 | nda μM	1350	
C=CC(=O)N1CCN(c2nc(=O)n(-c3cccnc3CC(C)C)c3nc(-c4ccccc4F)c(Cl)cc23)[C@@H](C)C1 [Example 101, 6-Chloro-7-(2-fluorophenyl)-4-((2S)-2-methyl-4-(2-propenoyl)-1-piperazinyl)-1-(2-(2-methylpropyl)-3-pyridinyl)pyrido[2,3-d]pyrimidin-2(1H)-one]	148	0.147 | nda μM		
C=CC(=O)N1CCN(c2nc(=O)n(-c3c(C)cnn3C(C)(C)C)c3nc(-c4ccccc4F)c(Cl)cc23)[C@@H](C)C1 (single isomer, unassigned) [Example 55-38-2]	108	0.133 | nda μM		
C=CC(=O)N1CCN(c2nc(=O)n(-c3c(C)cc(CO)cc3C(C)C)c3nc(-c4ccccc4F)c(Cl)cc23)[C@@H](C)C1 (single isomer, unassigned) [Example 80-2-2]	47	0.048 | nda μM		
C=CC(=O)N1CCN(c2nc(=O)n(-c3scnc3C(C)C)c3cc(-c4ccccc4F)c(Cl)cc23)[C@@H](C)C1 [Example 105, 6-Chloro-7-(2-fluorophenyl)-4-((2S)-2-methyl-4-(2-propenoyl)-1-piperazinyl)-1-(4-(2-propanyl)-1,3-thiazol-5-yl)-2(1H)-quinazolinone]	65	0.051 | nda μM		
C=CC(=O)N1CCN(c2nc(=O)n(-c3ccccc3C3(C)CC3)c3nc(-c4c(O)cccc4F)c(Cl)cc23)[C@@H](C)C1 (single isomer, unassigned) [Example 54-97-1]		0.971 | nda μM	1020	
C=CC(=O)N1CCN(c2nc(=S)n(-c3c(CC)cccc3CC)c3cc(-c4ccccc4F)c(Cl)cc23)[C@@H](C)C1 [Example 116, 1-((3S)-4-(6-Chloro-1-(2,6-diethylphenyl)-7-(2-fluorophenyl)-2-sulfanylidene-1,2-dihydro-4-quinazolinyl)-3-methyl-1-piperazinyl)-2-propen-1-one]	543	0.232 | nda μM		
C=CC(=O)N1CCN(c2nc(=O)n(-c3c(C)cccc3C(C)C)c3nc(-c4nc(N)ccc4Cl)c(F)cc23)[C@@H](C)C1 (single isomer, unassigned) [Example 71-1-1]	725	0.49 | nda μM		
C=CC(=O)N1CCN(c2nc(=O)n(-c3c(C(C)C)ccnc3C)c3nc(-c4ccccc4F)c(Cl)cc23)[C@@H](C)C1 (single isomer, unassigned) [Example 54-18-2]		0.729 | nda μM	643	
C=CC(=O)N1CCN(c2nc(=O)n(-c3ccccc3C(C)C)c3nc(-c4cc(N)ccc4Cl)c(Cl)cc23)[C@@H](C)C1 (single isomer, unassigned) [Example 56-7-1]		0.079 | nda μM	29	
C=CC(=O)N1CCN(c2nc(=O)n(-c3c(C)ccnc3C(C)C)c3nc(-c4c(O)cccc4Cl)c(F)cc23)[C@@H](C)C1 (single isomer, unassigned) [Example 58-9-2]		0.349 | nda μM	326	
C=CC(=O)N1CCN(c2nc(=O)n(-c3c(Cl)cccc3C(C)C)c3nc(-c4c(O)cccc4F)c(F)cc23)[C@@H](C)C1 (single isomer, unassigned) [Example 57-15-1]		0.089 | nda μM	104	

The remaining lines, values ahead:

IC50 ([1]; Homo sapiens, MIA PaCa-2, 2 h) [nM]	Coupled exchange IC50 (5 min) [2]	IC50 [1] [nM]	IC50 ([2]; read-out: Coupled exchange IC50 (5 min)) [nM]	Compound
908	0.292 | nda μM			C=CC(=O)N1CCN(c2nc(=O)n(-c3ncnn3C(C)C)c3nc(-c4ccccc4F)c(Cl)cc23)[C@@H](C)C1 [Example 55-41, 6-chloro-7-(2-fluorophenyl)-4-((2S)-2-methyl-4-(2-propenoyl)-1-piperazinyl)-1-(1-(2-propanyl)-1H-1,2,4-triazol-5-yl)pyrido[2,3-d]pyrimidin-2(1H)-one]
105	0.452 | nda μM			C=CC(=O)N1CCN(c2nc(=O)n(-c3ncccc3C(C)C)c3nc(-c4c(O)cccc4F)c(F)cc23)[C@@H](C)C1 [Example 57-10, 6-fluoro-7-(2-fluoro-6-hydroxyphenyl)-4-((2S)-2-methyl-4-(2-propenoyl)-1-piperazinyl)-1-(3-(2-propanyl)-2-pyridinyl)pyrido[2,3-d]pyrimidin-2(1H)-one]
69	0.11 | nda μM			C=CC(=O)N1CCN(c2nc(=O)n(-c3ccccc3C(C)C)c3nc(-c4cc(N)ccc4Cl)c(Cl)cc23)[C@@H](C)C1 [Example 56-7, 7-(5-amino-2-chlorophenyl)-6-chloro-4-((2S)-2-methyl-4-(2-propenoyl)-1-piperazinyl)-1-(2-(2-propanyl)phenyl)pyrido[2,3-d]pyrimidin-2(1H)-one]
227	0.304 | nda μM			C=CC(=O)N1CCN(c2nc(=O)n(-c3nccnc3CC)c3nc(-c4c(O)cccc4F)c(Cl)cc23)[C@@H](C)C1 [Example 54-37, 6-chloro-1-(3-ethyl-2-pyrazinyl)-7-(2-fluoro-6-hydroxy-phenyl)-4-((2S)-2-methyl-4-(2-propenoyl)-1-piperazinyl) pyrido[2,3-d]pyrimidin-2(1H)-one]
2670	0.695 | nda μM			C=CC(=O)N1CCN(c2nc(=O)n(-c3cn(Cc4ccccc4)nc3C3CC3)c3nc(-c4c(O)cccc4F)c(Cl)cc23)[C@@H](C)C1 [Example 55-20, 1-(1-benzyl-3-cyclopropyl-1H-pyrazol-4-yl)-6-chloro-7-(2-fluoro-6-hydroxyphenyl)-4-((2S)-2-methyl-4-(2-propenoyl)-1-piperazinyl)pyrido[2,3-d]pyrimidin-2(1H)-one]
554	0.191 | nda μM			C=CC(=O)N1CCN(c2nc(=O)n(-c3c(C)ccnc3C(C)C)c3nc(-c4c(F)ccc(F)c4O)c(F)cc23)[C@@H](C)C1 (atropisomer, axis not shown; (M)) [Example 72-9, (M)-7-(3,6-difluoro-2-hydroxyphenyl)-6-fluoro-1-(4-methyl-2-(2-propanyl)-3-pyridinyl)-4-((2S)-2-methyl-4-(2-propenoyl)-1-piperazinyl)pyrido[2,3-d]pyrimidin-2(1H)-one]
149	0.1 | nda μM			C=CC(=O)N1CCN(c2nc(=O)n(-c3c(C)ncnc3C(C)C)c3nc(-c4cc(C)ccc4F)c(Cl)cc23)[C@@H](C)C1 [Example 55-40, 6-chloro-7-(2-fluoro-5-methylphenyl)-1-(4-methyl-6-(2-propanyl)-5-pyrimidinyl)-4-((2S)-2-methyl-4-(2-propenoyl)-1-piperazinyl)pyrido[2,3-d]pyrimidin-2(1H)-one]
23	0.034 | nda μM			C=CC(=O)N1C[C@@H](C)N(c2nc(=O)n(-c3c(C)ccnc3C(C)C)c3nc(-c4ccccc4F)c(Cl)cc23)[C@@H](C)C1 (single isomer, unassigned) [Example 78-7, (M)-6-chloro-4-(cis-2,6-dimethyl-4-(2-propenoyl)-1-piperazinyl)-7-(2-fluorophenyl)-1-(4-methyl-2-(2-propanyl)-3-pyridinyl)pyrido[2,3-d]pyrimidin-2(1H)-one]
303	0.653 | nda μM			C=CC(=O)N1CCN(c2nc(=O)n(-c3c(CC)cncc3CC)c3nc(-c4ccccc4F)c(Cl)cc23)[C@@H](C)C1 [Example 55-22, 6-chloro-1-(3,5-diethyl-4-pyridinyl)-7-(2-fluorophenyl)-4-((2S)-2-methyl-4-(2-propenoyl)-1-piperazinyl)pyrido[2,3-d]pyrimidin-2(1H)-one]
181	0.251 | nda μM			C=CC(=O)N1CCN(c2nc(=O)n(-c3c(C(C)C)ncnc3C(C)C)c3nc(-c4ccc(F)cc4N)c(Cl)cc23)[C@@H](C)C1 [Example 87-5, 7-(2-amino-4-fluoropheny-1)-6-chloro-1-(4,6-di(2-propanyl)-5-pyrimidinyl)-4-((2S)-2-methyl-4-(2-propenoyl)-1-piperazinyl)pyrido[2,3-d]pyrimidin-2(1H)-one]
		49	48	C=CC(=O)N1C[C@@H](C)N(c2nc(=O)n(-c3c(C)ccnc3C(C)C)c3nc(-c4c(O)cccc4F)c(F)cc23)[C@@H](C)C1 (atropisomer, axis not shown; (M)) [Example 75-1, (M)-4-(cis-2,6-Dimethyl-4-(2-propenoyl)-1-piperazinyl)-6-fluoro-7-(2-fluoro-6-hydroxyphenyl)-1-(4-methyl-2-(2-propanyl)-3-pyridinyl)pyrido[2,3-d]pyrimidin-2(1H)-one]
